Source: US20250282785A1, “PYRROLIDINONE DERIVATIVES AS INHIBITORS OF NF KAPPA B INDUCING KINASE” (priority 2022, published 2025)

Columns and labels:
[1] = biological target: Recombinant Human NF-Kappab-Inducing Kinase (NIK/MAP3K14) (Homo sapiens, UniProt Q99558); assay: Inhibition of auto-phosphorylation of recombinant human NIK/MAP3K14 (AlphaScreen); format: biochemical; settings: NIK/MAP3K14 auto-phosphorylation, 5 microM ATP, 1 nM enzyme, 2 h at 25° C.; average of values; read-out: Assay 1 IC50
Sequence of Recombinant Human NF-Kappab-Inducing Kinase (NIK/MAP3K14) (Q99558 whole entry): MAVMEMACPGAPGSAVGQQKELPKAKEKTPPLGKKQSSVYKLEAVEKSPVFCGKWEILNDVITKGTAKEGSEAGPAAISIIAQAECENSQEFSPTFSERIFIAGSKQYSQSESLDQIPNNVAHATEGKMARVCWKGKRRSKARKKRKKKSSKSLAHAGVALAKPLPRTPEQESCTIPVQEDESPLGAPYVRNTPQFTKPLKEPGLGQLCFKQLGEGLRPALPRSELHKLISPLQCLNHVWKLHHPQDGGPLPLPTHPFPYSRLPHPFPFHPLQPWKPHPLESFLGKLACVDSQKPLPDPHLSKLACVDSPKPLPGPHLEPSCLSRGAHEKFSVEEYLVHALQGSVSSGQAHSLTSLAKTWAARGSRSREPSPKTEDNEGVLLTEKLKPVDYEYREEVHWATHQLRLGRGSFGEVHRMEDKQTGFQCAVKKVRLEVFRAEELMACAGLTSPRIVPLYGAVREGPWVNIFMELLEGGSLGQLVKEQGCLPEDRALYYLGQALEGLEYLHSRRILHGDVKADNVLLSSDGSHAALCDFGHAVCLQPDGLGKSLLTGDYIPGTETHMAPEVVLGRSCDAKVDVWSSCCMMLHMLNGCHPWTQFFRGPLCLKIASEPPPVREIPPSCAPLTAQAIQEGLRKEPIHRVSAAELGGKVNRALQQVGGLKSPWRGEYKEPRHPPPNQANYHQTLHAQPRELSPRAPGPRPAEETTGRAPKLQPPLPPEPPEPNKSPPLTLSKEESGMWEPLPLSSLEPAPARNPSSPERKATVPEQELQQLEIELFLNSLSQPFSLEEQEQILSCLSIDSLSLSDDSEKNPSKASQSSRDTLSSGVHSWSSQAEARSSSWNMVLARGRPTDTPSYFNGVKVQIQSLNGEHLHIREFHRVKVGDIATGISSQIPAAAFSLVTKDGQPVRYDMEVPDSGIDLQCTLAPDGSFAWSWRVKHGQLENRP
In short: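 AlphaScreen read-out used anti-phospho-IKK Ser176/180 antibody after 2 h, 25 °C incubation of compound, 1 nM GST-NIK and 5 µM ATP (final DMSO 0.7%). Percent inhibition referenced to high (enzyme) and low (no enzyme, no ATP) controls; sigmoidal curve fitting gave IC50.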

[2] = test system: p-IKKα levels in L363 (NIK translocated multiple myeloma) cells; assay: Effect of compounds on p-IKKα levels in L363 cells (AlphaLISA SureFire Ultra); format: cell-based; settings: Homo sapiens, L-363; L363 cells, BAFF stimulated, MG132, 6 h; average of values; read-out: Assay 2 IC50
In short: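 Phospho-IKKα (Ser 176/180) was quantified by AlphaLISA in lysed L363 cells after 6 h compound exposure (0.3% DMSO, 11 points, 1:3) alongside 250 ng/ml BAFF and 10 uM MG132, following overnight BAFF priming in low-serum DMEM. Duplicate curves were scaled between BAFF/DMSO/MG132 and unstimulated DMSO wells, then fitted sigmoidally for IC50.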

Structure (SMILES) | IC50 [1] [nM] | IC50 [2] [nM]
CN1CC[C@@](O)(c2cc(-c3cccc(-c4cc5[nH]cnc5c(C(N)=O)n4)c3)no2)C1=O [Example 97, (R)-6-(3-(5-(3-Hydroxy-1-methyl-2-oxopyrrolidin-3-yl)isoxazol-3-yl)phenyl)-1H-imidazo[4,5-c]pyridine-4-carboxamide] | < 100 | 100 to 500
CN1CC[C@@](O)(c2cc(-c3cccc(-c4nc(C(N)=O)cc(C(F)(F)F)n4)c3)no2)C1=O [Example 98, (R)-2-(3-(5-(3-Hydroxy-1-methyl-2-oxopyrrolidin-3-yl)isoxazol-3-yl)phenyl)-6-(trifluoromethyl)pyrimidine-4-carboxamide] | < 100 | > 501
CN1CC[C@@](O)(c2cc(-c3cccc(-n4nc(C(N)=O)c5cc(-c6ccn(C)n6)ccc54)c3)no2)C1=O [Example 99, (R)-1-(3-(5-(3-Hydroxy-1-methyl-2-oxopyrrolidin-3-yl)isoxazol-3-yl)phenyl)-5-(1-methyl-1H-pyrazol-3-yl)-1H-indazole-3-carboxamide] | < 100 | < 100
CN1CC[C@@](O)(c2cc(-c3cccc(-c4cc(N5CC(F)(F)C5)cc(C(N)=O)n4)c3)no2)C1=O [Example 100, (R)-4-(3,3-Difluoroazetidin-1-yl)-6-(3-(5-(3-hydroxy-1-methyl-2-oxopyrrolidin-3-yl)isoxazol-3-yl)phenyl)picolinamide] | < 100 | > 501
CN1CC[C@@](O)(c2cc(-c3cccc(-n4nc(C(N)=O)c5cc(F)ccc54)c3)no2)C1=O [Example 101, (R)-5-Fluoro-1-(3-(5-(3-hydroxy-1-methyl-2-oxopyrrolidin-3-yl)isoxazol-3-yl)phenyl)-1H-indazole-3-carboxamide] | < 100 | 100 to 500
CN1CC[C@@](O)(c2cc(-c3cccc(-n4nc(C(N)=O)c5c4CCCC5)c3)no2)C1=O [Example 102, (R)-1-(3-(5-(3-Hydroxy-1-methyl-2-oxopyrrolidin-3-yl)isoxazol-3-yl)phenyl)-4,5,6,7-tetrahydro-1H-indazole-3-carboxamide] | < 100 | > 501
COc1ccc2c(c1)c(C(N)=O)nn2-c1cccc(-c2cc([C@]3(O)CCN(C)C3=O)on2)c1 [Example 103, (R)-1-(3-(5-(3-Hydroxy-1-methyl-2-oxopyrrolidin-3-yl)isoxazol-3-yl)phenyl)-5-methoxy-1H-indazole-3-carboxamide] | < 100 | < 100
CNc1ccc(-c2cccc(-c3cc([C@]4(O)CCN(C)C4=O)on3)c2)nc1C(N)=O [Example 104, (R)-6-(3-(5-(3-Hydroxy-1-methyl-2-oxopyrrolidin-3-yl)isoxazol-3-yl)phenyl)-3-(methylamino)picolinamide] | < 100 | < 100
CN1CC[C@@](O)(c2cc(-c3cccc(-c4ncc(NC5COC5)c(C(N)=O)n4)c3)no2)C1=O [Example 105, (R)-2-(3-(5-(3-Hydroxy-1-methyl-2-oxopyrrolidin-3-yl)isoxazol-3-yl)phenyl)-5-(oxetan-3-ylamino)pyrimidine-4-carboxamide] | < 100 | < 100
CN1CC[C@@](O)(c2cc(-c3cccc(-c4ccc(NCC5COC5)c(C(N)=O)n4)c3)no2)C1=O [Example 106, (R)-6-(3-(5-(3-Hydroxy-1-methyl-2-oxopyrrolidin-3-yl)isoxazol-3-yl)phenyl)-3-((oxetan-3-ylmethyl)amino)picolinamide] | < 100 | 100 to 500
CN1CC[C@@](O)(c2cc(-c3cccc(-c4ncc(NCC5COC5)c(C(N)=O)n4)c3)no2)C1=O [Example 107, (R)-2-(3-(5-(3-Hydroxy-1-methyl-2-oxopyrrolidin-3-yl)isoxazol-3-yl)phenyl)-5-((oxetan-3-ylmethyl)amino)pyrimidine-4-carboxamide] | < 100 | < 100
CN1CC[C@@](O)(c2cc(-c3cccc(-c4cc(C5CC5)c(N)c(C(N)=O)n4)c3)on2)C1=O [Example 108, (R)-3-Amino-4-cyclopropyl-6-(3-(3-(3-hydroxy-1-methyl-2-oxopyrrolidin-3-yl)isoxazol-5-yl)phenyl)picolinamide] | < 100 | < 100
CN1CC[C@@](O)(c2cc(-c3cccc(-c4nc(C(N)=O)n5ccncc45)c3)no2)C1=O [Example 109, (R)-1-(3-(5-(3-Hydroxy-1-methyl-2-oxopyrrolidin-3-yl)isoxazol-3-yl)phenyl)imidazo[1,5-a]pyrazine-3-carboxamide] | < 100 | 100 to 500
CN1CC[C@@](O)(c2cc(-c3cccc(-c4cnc(N)c(C(N)=O)n4)c3)no2)C1=O [Example 110, (R)-3-Amino-6-(3-(5-(3-hydroxy-1-methyl-2-oxopyrrolidin-3-yl)isoxazol-3-yl)phenyl)pyrazine-2-carboxamide] | < 100 | < 100
CN1CC[C@@](O)(c2cc(-c3cccc(-c4ncc(NC5CC5)c(C(N)=O)n4)c3)no2)C1=O [Example 111, (R)-5-(Cyclopropylamino)-2-(3-(5-(3-hydroxy-1-methyl-2-oxopyrrolidin-3-yl)isoxazol-3-yl)phenyl)pyrimidine-4-carboxamide] | < 100 | < 100
CN1CC[C@@](O)(c2cc(-c3cccc(-n4nc(C(N)=O)c5cc(C6CC6)ccc54)c3)no2)C1=O [Example 112, (R)-5-Cyclopropyl-1-(3-(5-(3-hydroxy-1-methyl-2-oxopyrrolidin-3-yl)isoxazol-3-yl)phenyl)-1H-indazole-3-carboxamide] | < 100 | 100 to 500
COc1cc(-c2cc(-c3cc([C@]4(O)CCN(C)C4=O)on3)c(F)cc2F)nc2c(N)ncnc12 [Example 113, (R)-3-(3-(5-(4-Amino-8-methoxypyrido[3,2-d]pyrimidin-6-yl)-2,4-difluorophenyl)isoxazol-5-yl)-3-hydroxy-1-methylpyrrolidin-2-one] | < 100 | > 501
CN1CC[C@@](O)(c2cc(-c3cccc(-c4cn(C)c(C(N)=O)n4)c3)no2)C1=O [Example 114, (R)-4-(3-(5-(3-Hydroxy-1-methyl-2-oxopyrrolidin-3-yl)isoxazol-3-yl)phenyl)-1-methyl-1H-imidazole-2-carboxamide] | < 100 | > 501
COc1cc(-c2cc(-c3cc([C@]4(O)C[C@@H](C(F)(F)F)N(C)C4=O)on3)c(F)cc2F)nc2c(N)ncnc12 [Example 115, (3R,5S)-3-(3-(5-(4-Amino-8-methoxypyrido[3,2-d]pyrimidin-6-yl)-2,4-difluorophenyl)isoxazol-5-yl)-3-hydroxy-1-methyl-5-(trifluoromethyl)pyrrolidin-2-one] | > 501 | > 501
COc1cc(-c2cc(-c3cc([C@]4(O)C[C@@H](C(F)(F)F)N(C)C4=O)on3)ccc2F)nc2c(N)ncnc12 [Example 116, (3R,5S)-3-(3-(3-(4-amino-8-methoxypyrido[3,2-d]pyrimidin-6-yl)-4-fluorophenyl)isoxazol-5-yl)-3-hydroxy-1-methyl-5-(trifluoromethyl)pyrrolidin-2-one] | < 100 | > 501
CN1CC[C@@](O)(c2cc(-c3cccc(-c4cc(C5CC5)cc(C(N)=O)n4)c3)no2)C1=O [Example 117, (R)-4-Cyclopropyl-6-(3-(5-(3-hydroxy-1-methyl-2-oxopyrrolidin-3-yl)isoxazol-3-yl)phenyl)picolinamide] | < 100 | 100 to 500
